Among the data in patent publication US12071424B2, “IRE1 small molecule inhibitors” (Cornell University, priority 2017, dated 2024) are IC50 and EC50 values, retold here.

pEC50, pIC50: −log10 of the molar value.

The target of assay [1] is T1, IRE1a (Homo sapiens, UniProt O75460).
T1 construct: purchased SignalChem
Put plainly: In vitro FRET assay (IRE1a cleavage of XBP1 RNA probe). Format: biochemical. Conditions: 2 nM SignalChem IRE1a, tested as Formic Acid Salt (37: HCl Salt). The method in brief: Human

In assay [2] the test system is IRE1a. Put plainly: IRE1a Endoribonuclease Nanoluciferase Assay (XBP1 luciferase reporter in 293T cells). Format: cell-based, human. Conditions: Homo sapiens, HEK-293T, ER stressor, tested as Formic Acid Salt (37: HCl Salt). In a few lines:
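293T cells transiently transfected with a PGK-Luc2-P2A-XBP1u-Nanoluciferase-Pest reporter, replated after 6 h, then treated next day with ER stressors ± inhibitors. After lysis, firefly luminescence then nanoluciferase luminescence read sequentially (1000 ms integration each).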
(In a reporter assay the amount or activity of a reporter protein is the signal.)

T1 sequence (O75460 19-977): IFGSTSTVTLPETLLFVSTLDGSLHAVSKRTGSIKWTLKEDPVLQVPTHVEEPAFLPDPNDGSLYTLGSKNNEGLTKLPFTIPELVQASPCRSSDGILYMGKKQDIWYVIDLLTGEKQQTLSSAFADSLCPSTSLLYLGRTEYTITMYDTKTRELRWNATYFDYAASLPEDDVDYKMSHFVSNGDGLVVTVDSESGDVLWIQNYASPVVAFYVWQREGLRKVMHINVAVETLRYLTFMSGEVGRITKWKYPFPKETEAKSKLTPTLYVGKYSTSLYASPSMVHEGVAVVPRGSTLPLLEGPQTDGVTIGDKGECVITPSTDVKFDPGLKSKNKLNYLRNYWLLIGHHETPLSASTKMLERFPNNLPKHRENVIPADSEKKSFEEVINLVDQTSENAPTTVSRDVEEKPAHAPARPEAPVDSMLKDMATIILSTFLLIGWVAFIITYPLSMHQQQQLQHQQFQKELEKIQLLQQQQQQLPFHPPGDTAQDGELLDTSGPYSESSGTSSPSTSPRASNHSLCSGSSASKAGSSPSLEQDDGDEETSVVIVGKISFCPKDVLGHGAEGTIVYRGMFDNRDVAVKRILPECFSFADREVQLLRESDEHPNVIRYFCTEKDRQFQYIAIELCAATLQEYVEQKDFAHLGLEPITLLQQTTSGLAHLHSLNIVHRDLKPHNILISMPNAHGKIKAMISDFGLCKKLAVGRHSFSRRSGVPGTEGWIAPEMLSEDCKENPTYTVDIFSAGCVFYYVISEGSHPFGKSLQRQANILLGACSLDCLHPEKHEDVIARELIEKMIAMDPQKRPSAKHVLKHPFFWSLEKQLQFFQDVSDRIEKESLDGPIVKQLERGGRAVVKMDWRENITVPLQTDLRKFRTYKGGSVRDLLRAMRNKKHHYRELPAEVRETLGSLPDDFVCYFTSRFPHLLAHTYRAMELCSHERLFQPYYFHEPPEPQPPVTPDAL

For the compound `CCc1cc(-c2ccc(NS(=O)(=O)c3ccccc3C)nc2OC)cc2cnc(N[C@H]3CC[C@H](NC)CC3)nc12` [Compound 118, N-(5-(8-ethyl-2-(((1r,4r)-4-(methylamino)cyclohexyl)amino)quinazolin-6-yl)-6-methoxypyridin-2-yl)-2-methylbenzenesulfonamide], on IRE1a [1], the pIC50 is at least 8.30. Also, in the assay on IRE1a [2], the negative-log EC50 (pEC50) was at least 8.30.

As for `CCc1cc(-c2ccc(NS(=O)(=O)c3ccccc3C)nc2OC)cc2cnc(N[C@H]3CC[C@H](N(C)C)CC3)nc12` [Compound 119, N-(5-(2-(((1r,4r)-4-(dimethylamino)cyclohexyl)amino)-8-ethylquinazolin-6-yl)-6-methoxypyridin-2-yl)-2-methylbenzenesulfonamide], at IRE1a [1], the pIC50 is at least 8.30. Also, in the assay on IRE1a [2], the pEC50 is at least 8.30.

In the case of `CCc1cc(-c2ccc(NS(=O)(=O)c3ccccc3Cl)nc2C)cc2cnc(N[C@H]3CC[C@H](NC)CC3)nc12` [Compound 122, 2-chloro-N-(5-(8-ethyl-2-(((1r,4r)-4-(methylamino)cyclohexyl)amino)quinazolin-6-yl)-6-methylpyridin-2-yl)benzenesulfonamide], the pIC50 at IRE1a [1] was at least 8.30. For the same compound, in the assay on IRE1a [2], the pEC50 is at least 8.30.

Turning to `COc1nc(NS(=O)(=O)c2ccccc2Cl)ccc1-c1cc(C(C)(F)F)c2nc(N[C@H]3CC[C@H](N(C)C)CC3)ncc2c1` [Compound 124, 2-chloro-N-(5-(8-(1,1-difluoroethyl)-2-(((1r,4r)-4-(dimethylamino)cyclohexyl)amino)quinazolin-6-yl)-6-methoxypyridin-2-yl)benzenesulfonamide], the pIC50 at IRE1a [1] is at least 8.30. The pEC50 in the assay with IRE1a [2] was at least 8.30.

For the compound `CCc1cc(-c2ccc(NS(=O)(=O)c3ccccc3Cl)nc2C)cc2cnc(N[C@H]3CC[C@H](N(C)CC)CC3)nc12` [Compound 125, 2-chloro-N-(5-(8-ethyl-2-(((1r,4r)-4-(ethyl(methyl)amino)cyclohexyl)amino)quinazolin-6-yl)-6-methylpyridin-2-yl)benzenesulfonamide], at IRE1a [1], the negative-log IC50 (pIC50) was at least 8.30. The negative-log EC50 (pEC50) in the assay with IRE1a [2] is at least 8.30.

In the case of `CCc1cc(-c2cc(F)c(NS(=O)(=O)c3ccccc3Cl)nc2OC)cc2cnc(N[C@H]3CC[C@H](NC)CC3)nc12` [Compound 127, 2-chloro-N-(5-(8-ethyl-2-(((1r,4r)-4-(methylamino)cyclohexyl)amino)quinazolin-6-yl)-3-fluoro-6-methoxypyridin-2-yl)benzenesulfonamide], the negative-log IC50 (pIC50) on IRE1a [1] is at least 8.30. Moreover, the pEC50 in the assay with IRE1a [2] is at least 8.30.

Consider `CCc1cc(-c2cc(F)c(NS(=O)(=O)c3ccccc3Cl)nc2OC)cc2cnc(N[C@H]3CC[C@H](N(C)C)CC3)nc12` [Compound 128, 2-chloro-N-(5-(2-(((1r,4r)-4-(dimethylamino)cyclohexyl)amino)-8-ethylquinazolin-6-yl)-3-fluoro-6-methoxypyridin-2-yl)benzenesulfonamide], for which the pIC50 at IRE1a [1] is at least 8.30. Besides, in the assay on IRE1a [2], the pEC50 is at least 8.30.

For `CCc1cc(-c2ccc(NS(=O)(=O)c3ccccc3Cl)nc2C)cc2cnc(N[C@H]3CC[C@H](N(C)CC4CCC4)CC3)nc12` [Compound 130, 2-chloro-N-(5-(2-(((1r,4r)-4-((cyclobutylmethyl)(methyl)amino)cyclohexyl)amino)-8-ethylquinazolin-6-yl)-6-methylpyridin-2-yl)benzenesulfonamide], the pIC50 on IRE1a [1] was at least 8.30. In the assay with IRE1a [2], the negative-log EC50 (pEC50) is at least 8.30.

Take `Cc1nc(NS(=O)(=O)c2ccccc2Cl)ccc1-c1cc(C(C)(F)F)c2nc(N[C@H]3CC[C@H](N(C)C)CC3)ncc2c1` [Compound 131]: the pIC50 at IRE1a [1] was at least 8.30. Besides, the pEC50 in the assay with IRE1a [2] was at least 8.30.

As for `CCc1cc(-c2ccc(NS(=O)(=O)c3ccccc3Cl)nc2C)cc2cnc(N[C@H]3CC[C@H](N(C)CCOC)CC3)nc12` [Compound 132, 2-chloro-N-(5-(8-ethyl-2-(((1r,4r)-4-((2-methoxyethyl)(methyl)amino)cyclohexyl)amino)quinazolin-6-yl)-6-methylpyridin-2-yl)benzenesulfonamide], the pIC50 on IRE1a [1] is at least 8.30. Further, in the assay with IRE1a [2], the pEC50 is at least 8.30.

On to `COc1nc(NS(=O)(=O)c2ccccc2Cl)ccc1-c1cc(C)c2nc(N[C@H]3CC[C@H](N(C)C)CC3)ncc2c1` [Compound 133, 2-chloro-N-(5-(2-(((1r,4r)-4-(dimethylamino)cyclohexyl)amino)-8-methylquinazolin-6-yl)-6-methoxypyridin-2-yl)benzenesulfonamide], for which the pIC50 at IRE1a [1] is at least 8.30. For the same compound, the pEC50 in the assay on IRE1a [2] was at least 8.30.

Take `COc1nc(NS(=O)(=O)c2ccccc2Cl)ccc1-c1cc(C(F)(F)F)c2nc(N[C@H]3CC[C@H](N(C)C)CC3)ncc2c1` [Compound 135, 2-chloro-N-(5-(2-(((1r,4r)-4-(dimethylamino)cyclohexyl)amino)-8-(trifluoromethyl)quinazolin-6-yl)-6-methoxypyridin-2-yl)benzenesulfonamide]: the pIC50 on IRE1a [1] is at least 8.30. Moreover, the pEC50 in the assay with IRE1a [2] is at least 8.30.

For `COCc1cc(-c2ccc(NS(=O)(=O)c3ccccc3Cl)nc2OC)cc2cnc(N[C@H]3CC[C@H](N(C)C)CC3)nc12` [Compound 137, 2-chloro-N-(5-(2-(((1r,4r)-4-(dimethylamino)cyclohexyl)amino)-8-(methoxymethyl)quinazolin-6-yl)-6-methoxypyridin-2-yl)benzenesulfonamide], the pIC50 at IRE1a [1] is at least 8.30. Moreover, the pEC50 in the assay on IRE1a [2] was at least 8.30.

For the compound `CCc1cc(-c2ccc(NS(=O)(=O)c3ccccc3Cl)nc2OC)cc2cnc(N[C@H]3CC[C@@H](N(C)C)CC3)nc12` [Compound 141, 2-chloro-N-(5-(2-(((1s,4s)-4-(dimethylamino)cyclohexyl)amino)-8-ethylquinazolin-6-yl)-6-methoxypyridin-2-yl)benzenesulfonamide], at IRE1a [1], the pIC50 was at least 8.30. Besides, in the assay with IRE1a [2], the pEC50 was 5.00 to 7.00.

With `COc1nc(NS(=O)(=O)c2ccccc2Cl)c(F)cc1-c1cc(C)c2nc(N[C@H]3CC[C@H](N(C)C)CC3)ncc2c1` [Compound 145, 2-chloro-N-(5-(2-(((1r,4r)-4-(dimethylamino)cyclohexyl)amino)-8-methylquinazolin-6-yl)-3-fluoro-6-methoxypyridin-2-yl)benzenesulfonamide], the pIC50 on IRE1a [1] was at least 8.30. Moreover, the pEC50 with IRE1a [2] is at least 8.30.

Turning to `COc1nc(NS(=O)(=O)c2ccccc2Cl)ccc1-c1cc(F)c2nc(N[C@H]3CC[C@H](N(C)C)CC3)ncc2c1` [Compound 148, 2-chloro-N-(5-(2-(((1r,4r)-4-(dimethylamino)cyclohexyl)amino)-8-fluoroquinazolin-6-yl)-6-methoxypyridin-2-yl)benzenesulfonamide], the pIC50 at IRE1a [1] is at least 8.30. For the same compound, the pEC50 with IRE1a [2] was at least 8.30.

On to `COc1nc(NS(=O)(=O)c2ccccc2Cl)c(F)cc1-c1ccc2nc(N[C@H]3CC[C@H](N(C)C)CC3)ncc2c1` [Compound 149, 2-chloro-N-(5-(2-(((1r,4r)-4-(dimethylamino)cyclohexyl)amino)quinazolin-6-yl)-3-fluoro-6-methoxypyridin-2-yl)benzenesulfonamide], for which the pIC50 at IRE1a [1] is at least 8.30. Further, in the assay with IRE1a [2], the pEC50 is 7.30 to 8.30.

Turning to `CN[C@H]1CC[C@H](Nc2ncc3cc(-c4cc(F)c(NS(=O)(=O)c5ccccc5Cl)nc4OC)ccc3n2)CC1` [Compound 150, 2-chloro-N-(3-fluoro-6-methoxy-5-(2-(((1r,4r)-4-(methylamino)cyclohexyl)amino)quinazolin-6-yl)pyridin-2-yl)benzenesulfonamide], the pIC50 on IRE1a [1] is at least 8.30. In addition, the negative-log EC50 (pEC50) in the assay with IRE1a [2] was 7.30 to 8.30.

For the compound `CCc1cc(-c2ccc(NS(=O)(=O)c3cccc(Cl)c3Cl)nc2C)cc2cnc(N[C@H]3CC[C@H](N(C)C)CC3)nc12` [Compound 152, 2,3-dichloro-N-(5-(2-(((1r,4r)-4-(dimethylamino)cyclohexyl)amino)-8-ethylquinazolin-6-yl)-6-methylpyridin-2-yl)benzenesulfonamide], the pIC50 at IRE1a [1] is at least 8.30. Moreover, the pEC50 with IRE1a [2] is at least 8.30.

Consider `Cc1nc(NS(=O)(=O)c2ccccc2Cl)c(F)cc1-c1ccc2nc(N[C@H]3CC[C@H](N(C)C)CC3)ncc2c1` [Compound 153, 2-chloro-N-(5-(2-(((1r,4r)-4-(dimethylamino)cyclohexyl)amino)quinazolin-6-yl)-3-fluoro-6-methylpyridin-2-yl)benzenesulfonamide], for which the pIC50 on IRE1a [1] is at least 8.30. The pEC50 in the assay on IRE1a [2] was 7.30 to 8.30.

On to `CCc1cc(-c2cnc(NS(=O)(=O)c3ccccc3Cl)nc2OC)cc2cnc(N[C@H]3CC[C@H](N(C)C)CC3)nc12` [Compound 154, 2-chloro-N-(5-(2-(((1r,4r)-4-(dimethylamino)cyclohexyl)amino)-8-ethylquinazolin-6-yl)-4-methoxypyrimidin-2-yl)benzenesulfonamide], for which the pIC50 on IRE1a [1] is at least 8.30. Also, in the assay on IRE1a [2], the pEC50 is at least 8.30.

Regarding `COc1nc(NS(=O)(=O)c2ccccc2Cl)c(F)cc1-c1cc(F)c2nc(N[C@H]3CC[C@H](N(C)C)CC3)ncc2c1` [Compound 155, 2-chloro-N-(5-(2-(((1r,4r)-4-(dimethylamino)cyclohexyl)amino)-8-fluoroquinazolin-6-yl)-3-fluoro-6-methoxypyridin-2-yl)benzenesulfonamide], the pIC50 at IRE1a [1] was at least 8.30. Moreover, the pEC50 in the assay on IRE1a [2] was 7.00 to 7.30.

As to `CCc1cc(-c2ncc(NS(=O)(=O)c3ccccc3Cl)nc2OC)cc2cnc(N[C@H]3CC[C@H](N(C)C)CC3)nc12` [Compound 157, 2-chloro-N-(5-(2-(((1r,4r)-4-(dimethylamino)cyclohexyl)amino)-8-ethylquinazolin-6-yl)-6-methoxypyrazin-2-yl)benzenesulfonamide], the pIC50 on IRE1a [1] was at least 8.30. Besides, the pEC50 with IRE1a [2] is at least 8.30.

In the case of `CCc1cc(-c2ccc(NS(=O)(=O)c3cccc(F)c3Cl)nc2C)cc2cnc(N[C@H]3CC[C@H](N(C)C)CC3)nc12` [Compound 158, 2-chloro-N-(5-(2-(((1r,4r)-4-(dimethylamino)cyclohexyl)amino)-8-ethylquinazolin-6-yl)-6-methylpyridin-2-yl)-3-fluorobenzenesulfonamide], the pIC50 at IRE1a [1] is at least 8.30. The pEC50 in the assay with IRE1a [2] was at least 8.30.

In general, pIC50 refers to the IC50 on a negative log10 scale, so that one unit is a factor of ten. The term pEC50 denotes the negative decadic logarithm of the EC50, by convention in mol/L.
